# Data: patent US20260053778A1, “USE OF NOVEL PPAR ACTIVITY MODULATOR FOR PREVENTION, AMELIORATION OR TREATMENT OF DEGENERATIVE BRAIN DISEASES” (POSTECH RESEARCH AND BUSINESS DEVELOPMENT FOUNDATION, priority 2022, published 2026)
# Experiments:
# [1] = biological target: T1, PPARγ (Homo sapiens, UniProt P37231); assay: GAL4-transactivation assay in HEK293A cells, PPARγ; format: cell-based; settings: GAL4 reporter, 24 h, compared with rosiglitazone
# T1 construct: expressed in transfected cells; host or cells: HEK293A
# T1 sequence (P37231 1-505): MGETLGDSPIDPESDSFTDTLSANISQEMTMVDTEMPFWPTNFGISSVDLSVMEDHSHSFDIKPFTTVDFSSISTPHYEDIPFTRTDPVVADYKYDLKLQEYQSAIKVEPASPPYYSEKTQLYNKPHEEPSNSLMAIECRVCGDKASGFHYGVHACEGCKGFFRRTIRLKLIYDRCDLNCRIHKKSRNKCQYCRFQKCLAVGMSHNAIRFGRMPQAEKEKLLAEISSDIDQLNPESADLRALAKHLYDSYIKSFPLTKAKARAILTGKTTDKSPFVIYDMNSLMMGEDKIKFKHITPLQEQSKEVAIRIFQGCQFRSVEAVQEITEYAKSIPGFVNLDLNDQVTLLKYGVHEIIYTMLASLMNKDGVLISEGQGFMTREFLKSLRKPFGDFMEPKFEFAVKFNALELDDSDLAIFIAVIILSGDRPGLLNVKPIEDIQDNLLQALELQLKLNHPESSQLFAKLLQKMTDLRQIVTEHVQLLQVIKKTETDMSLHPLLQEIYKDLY
# Procedure: A GAL4-transactivation assay experiment was performed to determine whether the drug was bound to the PPAR ligand binding site. HEK293A cells were transfected with GAL4-reporter plasmid and pGL4.74 (Promega, Madison, WI, USA) as an internal standard via electroporation using the Neon Transfection System (Invitrogen, Carlsbad, CA, USA). All vectors were kindly provided by Professor Kanno Yuichiro, Toho University, Japan. After overnight culture, cells were treated with DTMB and each positive control compound for 24 h. Cells were then harvested, resuspended in luciferase lysis buffer (Promega), and incubated on ice for 10 min. Cell debris was removed by centrifugation at 20,000×g, 4° C. for 10 min, and the supernatant was used for the luciferase assay. Luciferase activity was measured using the Dual Luciferase Reporter Assay System (Promega) according to the manufacturer's instructions. In the measurement experiment, firefly luciferase activity was normalized to Renilla luciferase activity. To investigate the concentration-dependent effect of DTMB drug, EC50 values were measured by treating various concentrations of DTMB.
# [2] = system: primary microglia isolated from mouse; assay: Cytokine ELISA in primary microglia; format: cell-based; settings: primary microglia treated with LPS or Aβ aggregates, DTMB 24 h
# Procedure: To confirm a more clear anti-inflammatory effect, the microglia cell line (BV2) and microglia isolated from mice were treated with lipopolysaccharide (LPS) and Aβ aggregates to induce an inflammatory response, and then DTMB was treated to measure the decrease in cytokine levels in microglia by DTMB treatment using ELISA.
# Primary microglial culture was performed as described in the literature [Lian H, Roy E, Zheng H. Protocol for primary microglial culture preparation. Bio-protocol. 2016; 6(21)]. Postnatal day 3 mice were used for primary microglial cell preparation. Newborn mouse pups were anesthetized on ice and then sacrificed. The isolated cortex and hippocampus were collected after removing the meninges. The brain tissues were dissociated by incubation with trypsin (2.5%) in HBSS (Gibco, Gaithersburg, MD, USA) for 15 min. The cell homogenate was then cultured in M-CSF (20 ng/mL, R&D Systems) supplemented with DMEM-F12 medium containing 10% fetal bovine serum, 10% horse serum, 1% GlutaMAX (Gibco, MD, USA), and 1% penicillin/streptomycin (Welgene, Korea). After 10 days, microglia were purified by shaking at 260 rpm for 2 h.
# Cytokine levels (TNF-α, IL-1β, and IL-6) were measured in the media of BV2 microglia and primary microglia treated with LPS (1 μg/mL) and human Aβ1-42 (5 μg/mL). […]
# [3] = system: 5×FAD Alzheimer's dementia-induced mice; assay: Immunohistochemistry of Aβ aggregates in brain tissue; format: in vivo, mouse; settings: hippocampus and cerebral cortex regions, 6e10 immunohistochemistry, 5×FAD mice, DTMB 10 mg/kg orally
# Procedure: In the case of Alzheimer's dementia, an increase in the formation of Aβ aggregates in brain tissue is observed as a common pathological phenomenon. Therefore, to determine whether DTMB administration inhibited the formation of Aβ aggregates, the amount of AB aggregates in the hippocampus and cerebral cortex, which are closely related to memory ability, was measured using immunochemical staining in 5×FAD Alzheimer's dementia-induced mice.
# The mice were perfused with ice-cold phosphate-buffered saline (PBS). The brain tissue was used separately for molecular analysis or immunohistochemistry. The right hemisphere was fixed with 4% PFA and transferred to a sucrose solution (30%) for 24 hours. The right hemisphere was frozen in the optimal cutting temperature compound of dry ice. Coronal sections (18 μm thick) including the hippocampus were cut and prepared on slide glass. The tissue sections were then permeabilized and blocked with blocking solution (5% goat serum and 0.2% Triton X-100 in PBS) for 1 h at room temperature. Primary antibody incubation was performed overnight at 4° C. using anti-6e10 antibody (Biolegend, Japan, 1:100). After washing, the sections were incubated with the appropriate secondary antibody (1:500) for 1 h at room temperature. […] Fluorescence was measured by calculating the % area and analyzed using ImageJ. […]
# [4] = system: 5×FAD Alzheimer's dementia-induced mice; assay: qPCR of proinflammatory cytokines in brain tissue; format: in vivo, mouse; settings: 5×FAD mice
# Excerpt: The gene expression levels of proinflammatory cytokines and related enzymes (II-1B, Il-6, and iNOS) in the brain tissues of the DTMB-administered and non-administered groups of 5×FAD Alzheimer's dementia-induced mice were confirmed by qPCR.
smiles,measurement,setting,value
"COc1ccc(-c2cc(=O)oc3c(C)c(OC(=O)[C@H](Cc4c[nH]c5ccccc45)NC(=O)OC(C)(C)C)ccc23)cc1 [DTMB, [4-(4-Methoxyphenyl)-8-methyl-2-oxochromen-7-yl](2S)-3-(1H-indol-3-yl)-2-[(2-methylpropan-2-yl)oxycarbonylamino]propanoate]",PPARγ activation versus positive control,[1],"activated at a slightly higher concentration than GW501516 and rosiglitazone, respectively"
same,Level of IL-6,[2],statistically significantly reduced
same,Level of TNF-α,[2],statistically significantly reduced
same,Amount of Aβ aggregates,[3],significantly reduced
same,Expression level of Il-1β,[4],decreased
same,Expression level of Il-6,[4],decreased
same,Expression level of iNOS,[4],decreased
